Measurements reported in ChEMBL document CHEMBL5385879, “Various strategies for developing APOBEC3G protectors to circumvent human immunodeficiency virus type 1” (Eur J Med Chem, 2023).
pIC50: −log10 of the molar value. Active and inactive are the calls of the source. No cut-off for these calls is given here.

Tests used:
[1] = target: Virion infectivity factor (Human immunodeficiency virus type 1 group M subtype B (isolate NY5)(HIV-1), UniProt P12504); test: Inhibition of HIV1 Vif; parameters: species or system Human immunodeficiency virus 1
Chain of Virion infectivity factor (P12504 1-150 limits assumed): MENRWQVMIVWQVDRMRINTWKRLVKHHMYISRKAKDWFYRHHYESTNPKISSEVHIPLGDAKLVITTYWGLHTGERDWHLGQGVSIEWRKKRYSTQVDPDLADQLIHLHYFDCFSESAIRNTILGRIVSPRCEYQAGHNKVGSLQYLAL
Chain of Virion infectivity factor (P12504 151-192 limits assumed): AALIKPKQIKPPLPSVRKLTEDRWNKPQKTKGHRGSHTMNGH

[2] = Cytotoxicity against human PBMCs; assay type: toxicity, cell-based, PBMC; conditions: read-out: TC50 (the source's name)
[3] = system: Human immunodeficiency virus 1; test: Antiviral activity against HIV1 Bal infected in PBMCs assessed as reduction in viral replication measured after 7 days post infection; assay type: functional, organism-based; conditions: Human immunodeficiency virus 1, Bal, PBMC, 168 h
[4] = Cytotoxicity against HEK293T cells; assay type: toxicity, cell-based, HEK-293T; conditions: human
Hepatitis B virus [5] = test: Antiviral activity against HBV infected in ETV/3TC-resistant HepG2.A64 cells assessed as reduction in viral replication; assay type: functional, organism-based
Hepatitis B virus [6] = test: Antiviral activity against wild type HBV infected in HepG2.2.15 cells assessed as reduction in viral replication; assay type: functional, organism-based
[7] = Inhibition of HIV1 Vif to human A3G protein-protein interaction
[8] = system: Human immunodeficiency virus 2; test: Antiviral activity against HIV2 infected in PBMCs assessed as reduction in viral replication measured after 7 days by ELISA; assay type: functional, organism-based; conditions: Human immunodeficiency virus 2, PBMC, 168 h
[9] = system: Human immunodeficiency virus 2; test: Antiviral activity against HIV2 infected in C8166 cells assessed as reduction in viral replication measured after 3 days by ELISA; assay type: functional, organism-based; conditions: Human immunodeficiency virus 2, C8166, 72 h
[10] = system: Human immunodeficiency virus 1; test: Antiviral activity against HIV1 infected in C8166 cells assessed as reduction in viral replication measured after 3 days by ELISA; assay type: functional, organism-based; conditions: Human immunodeficiency virus 1, C8166, 72 h
[11] = system: Human immunodeficiency virus 1; test: Antiviral activity against HIV1 infected in PBMCs assessed as reduction in viral replication measured after 7 days by ELISA; assay type: functional, organism-based; conditions: Human immunodeficiency virus 1, PBMC, 168 h
HEK293T = test: Inhibition of HIV1 Vif expressed in HEK293T cells to cul5 (unknown origin) protein-protein interaction; assay type: cell-based
[12] = system: Human immunodeficiency virus 1; test: Antiviral activity against HIV-1 Bal infected in PBMCs; assay type: functional, organism-based; conditions: Human immunodeficiency virus 1, Bal, PBMC
[13] = Inhibition of HIV1 GST-tagged Vif (1 to 94 residues) to biotinylated-A3G (110 to 148 residues) (unknown origin) protein-protein interaction by TR-FRET assay
[14] = system: Human immunodeficiency virus 1; test: Antiviral activity against HIV1 infected in HEK293T cells cotransfected with pNL4-3 plus A3G vector assessed as reduction in viral replication measured after 48 hrs post transfection by MAGI assay; assay type: functional, organism-based; conditions: Human immunodeficiency virus 1, HEK-293T
[15] = system: Human immunodeficiency virus 1; test: Antiviral activity against HIV1 infected in CEM cells assessed as reduction in viral replication measured on day 7 postinfection by ELISA; assay type: functional, organism-based; conditions: Human immunodeficiency virus 1, CCRF-CEM, 168 h
[16] = system: Human immunodeficiency virus 1; test: Antiviral activity against HIV-1 NL4-3 infected in HEK293T cells cotransfected with VSVG and hA3G-HA assessed as reduction in viral replication preincubated for 36 hrs followed by SubT1 cells infection for 48 hrs by luciferase based assay; assay type: functional, organism-based; conditions: Human immunodeficiency virus 1, NL4-3, HEK-293T
[17] = system: Human immunodeficiency virus 1; test: Antiviral activity against HIV-1 NL4-3 infected in HEK293T cells cotransfected with Vif and hA3G-HA assessed as fold increase in A3G-HA level at 10 uM measured after 36 hrs by Western blotting analysis; assay type: functional
[18] = system: Human immunodeficiency virus 1; test: Antiviral activity against HIV1 infected in H9 cells assessed as reduction in viral replication measured after 4 days post infection; assay type: functional, organism-based; conditions: Human immunodeficiency virus 1, H9, 96 h

COc1ccccc1NC(=O)c1ccccc1Sc1ccc([N+](=O)[O-])cc1
pIC50 [1]: 5.22

COc1cc(-c2ccc(Nc3ccccc3C(=O)O)c(OC)c2)ccc1Nc1ccccc1C(=O)O
CC50 [2]: > 100000 nM | pIC50 [3]: 5.86

CCCCn1c(SCc2c(C)noc2C)nc2cc(S(N)(=O)=O)ccc21
pIC50 [4]: 4.52

CNc1cc(C(=O)Nc2ccc(Cl)cc2)ccc1OC
pIC50 (Hepatitis B virus [5]): 5.48 | pIC50 (Hepatitis B virus [6]): 5.70

COc1ccc(C(=O)Nc2cc(OC)c(OC)c(OC)c2)cc1NC(=O)C(C)Br (stereo not drawn)
pIC50 [7]: 7.77

CCCCCCCCCCCCCCCCCCCCCCC(=O)O[C@@H]1[C@@H](C)[C@@]2(O)[C@@H](C=C(COC(C)=O)C[C@]3(O)C(=O)C(C)=C[C@@H]23)[C@@H]2C(C)(C)[C@]12O
pIC50 [8]: 7.00 | pIC50 [9]: 7.00 | pIC50 [10]: 7.00 | pIC50 [11]: 7.00

c1ccc(CN(CCN(Cc2ccccn2)Cc2ccccn2)Cc2ccccn2)nc1
inhibition (HEK293T): Active

C/C(=C/C(=O)c1cccnc1)Nc1ccc(O)cc1
CC50 [2]: > 100000 nM | pIC50 [12]: 5.38 | pIC50 [3]: 5.08 | pIC50 [13]: 5.66

CCOC(=O)c1cc(C(=O)c2ccc3ccccc3c2)n2ccc(C(=O)c3ccccc3)cc12
pIC50 [14]: 4.60

CC(C)(C)OC(=O)NCCCC[C@@H](NC(=O)OCc1ccccc1)C(=O)Oc1ccc([N+](=O)[O-])cc1
pIC50 [15]: 5.09

Fc1ccc(OCC(Cn2ccnc2)c2ccc(Cl)cc2Cl)cc1 (stereo not drawn)
pIC50 [16]: 5.06 | fold change (FC) [17]: 1.7

N#C/C(=C\c1ccc(Br)nc1)c1nc2ccccc2[nH]1
pIC50 [18]: 6.00

COc1ccc(C(=O)Oc2cc(OC)c(OC)c(OC)c2)cc1NC(=O)C(C)Br (stereo not drawn)
pIC50 [7]: 7.77

Cc1noc(C)c1CSc1nc2ccccc2n1-c1ccccc1
pIC50 [4]: 4.52
